These are literature values, as cited in US20190000898A1, “COMBINING ADENOVIRUS AND CHEMOTHERAPEUTIC AGENTS FOR TREATING CANCER” (priority 2016, published 2019).

Data set [1] deals with syngeneic pancreatic tumors. The note with it: immune-competent hamsters.
The next data set deals with unresectable MPM. The note with it: patients; p=0.02.

As to `O=P1(N(CCCl)CCCl)NCCCO1` (centres unmarked) [cyclophosphamide], the “antitumor efficacy (tumor growth)” value in data set [1] was “did not result in significant reduction of tumor growth”.

As for `N.N.[Cl][Pt][Cl]` [Cisplatin], the median survival in the data set on unresectable MPM was 9 months.
